Where “and” joins values, the source holds several entries; their conditions need not be identical. Equal entries are not always repeated.
Tested on: collagen-induced arthritis
Assay: Collagen-induced arthritis (CIA) model: clinical scores and paw volume; as to Animal paw volume percent change (%): reference of the scale not given here; as to Average animal paw volume percent change (%): reference of the scale not given here
Assay type: in vivo, Lewis rats
Conditions: for Overall Clinical Score: individual animals 1-8; for Animal paw volume / Animal paw volume percent change (%): individual animals
[1] = Day 15, CIA + Compound A 3 mg/kg
[2] = Day 15, CIA + Compound A 10 mg/kg
[3] = Day 18, L paw, group 5 CIA + Compound A 1 mg/kg
[4] = Day 18, L paw, group 6 CIA + Compound A 3 mg/kg
[5] = Day 18, L paw, group 7 CIA + Compound A 10 mg/kg
[6] = Day 18, R paw, group 5 CIA + Compound A 1 mg/kg
[7] = Day 18, R paw, group 6 CIA + Compound A 3 mg/kg
[8] = Day 18, R paw, group 7 CIA + Compound A 10 mg/kg
[9] = Day 18, CIA + Compound A 1 mg/kg
[10] = Day 18, CIA + Compound A 3 mg/kg
[11] = Day 18, CIA + Compound A 10 mg/kg
[12] = Day 19, L paw, group 5 CIA + Compound A 1 mg/kg
[13] = Day 19, L paw, group 6 CIA + Compound A 3 mg/kg
[14] = Day 19, L paw, group 7 CIA + Compound A 10 mg/kg
[15] = Day 19, R paw, group 5 CIA + Compound A 1 mg/kg
[16] = Day 19, R paw, group 6 CIA + Compound A 3 mg/kg
[17] = Day 19, R paw, group 7 CIA + Compound A 10 mg/kg
[18] = Day 19, CIA + Compound A 1 mg/kg
[19] = Day 19, CIA + Compound A 3 mg/kg
[20] = Day 21, L paw, group 5 CIA + Compound A 1 mg/kg
[21] = Day 21, L paw, group 6 CIA + Compound A 3 mg/kg
[22] = Day 21, L paw, group 7 CIA + Compound A 10 mg/kg
[23] = Day 21, R paw, group 5 CIA + Compound A 1 mg/kg

Structure (SMILES): Cn1cc(-c2ccccc2)c(-c2cn(C)c(=O)c3[nH]c(-c4cnn(C(F)(F)F)c4)cc23)cc1=O [Compound A, 6-methyl-4-(1-methyl-2-oxo-5-phenyl-1,2-dihydropyridin-4-yl)-2-(1-(trifluoromethyl)-1H-pyrazol-4-yl)-1,6-dihydro-7H-pyrrolo[2,3-c]pyridin-7-one]
- Average detailed clinical score, score [1]: 1
- Average overall clinical score [1]: 1
- Overall Clinical Score (Day 15, CIA + Compound A 3 mg/kg, 3 mg/kg): 0 (2×) and 1
- Average detailed clinical score, left forelimb [2]: 0
- Average detailed clinical score, left hind limb [2]: 0.75
- Average detailed clinical score, right forelimb [2]: 0
- Average detailed clinical score, right hind limb [2]: 0.5
- Average detailed clinical score, score [2]: 1.25
- Average overall clinical score [2]: 1
- Animal paw volume (Day 15, L paw, Group 5 (CIA + Compound A 1 mg/kg), 1 mg/kg): 1.45 mL and 1.84 mL and 1.77 mL and 1.64 mL and 1.48 mL and 1.66 mL and 1.92 mL
- Animal paw volume (Day 15, L paw, Group 6 (CIA + Compound A 3 mg/kg), 3 mg/kg): 1.49 mL (2×) and 1.59 mL and 1.48 mL and 1.54 mL and 1.68 mL
- Animal paw volume (Day 15, R paw, Group 5 (CIA + Compound A 1 mg/kg), 1 mg/kg): 1.42 mL and 1.81 mL and 1.56 mL and 1.65 mL and 1.50 mL and 1.72 mL and 1.59 mL
- Animal paw volume (Day 15, R paw, Group 6 (CIA + Compound A 3 mg/kg), 3 mg/kg): 1.39 mL and 1.41 mL and 1.46 mL and 1.42 mL and 1.75 mL and 1.57 mL
- Average animal paw volume [3]: 1.98 mL
- Average animal paw volume percent change (%) [3]: 49.46%
- Average animal paw volume [4]: 1.64 mL
- Average animal paw volume percent change (%) [4]: 24.36%
- Average animal paw volume [5]: 1.61 mL
- Average animal paw volume percent change (%) [5]: 22.68%
- Animal paw volume percent change (%) (Day 18, L paw, group 5 CIA + Compound A 1 mg/kg, 1 mg/kg): 55.17% and 87.60% and 51.66% and 66.42% and 24.72% and 52.08% and 52.83%
- Animal paw volume percent change (%) (Day 18, L paw, group 6 CIA + Compound A 3 mg/kg, 3 mg/kg): 29.66% and 54.47% and 6.08% and 10.26% and 18.39% and 23.97%
- Average animal paw volume [6]: 1.91 mL
- Average animal paw volume percent change (%) [6]: 44.06%
- Average animal paw volume [7]: 1.78 mL
- Average animal paw volume percent change (%) [7]: 35.37%
- Average animal paw volume [8]: 1.76 mL
- Average animal paw volume percent change (%) [8]: 34.04%
- Animal paw volume percent change (%) (Day 18, R paw, group 5 CIA + Compound A 1 mg/kg, 1 mg/kg): 59.00% and 89.96% and 33.45% and 53.58% and 18.45% and 55.13% and 36.98%
- Animal paw volume percent change (%) (Day 18, R paw, group 6 CIA + Compound A 3 mg/kg, 3 mg/kg): 61.13% and 22.57% and 44.15% and 30.48% and 50.58% and 23.22%
- Average detailed clinical score, left forelimb [9]: 0.50
- Average detailed clinical score, left hind limb [9]: 3.88
- Average detailed clinical score, right forelimb [9]: 0.50
- Average detailed clinical score, right hind limb [9]: 3.88
- Average detailed clinical score, score [9]: 8.75
- Average overall clinical score [9]: 4
- Overall Clinical Score (Day 18, CIA + Compound A 1 mg/kg, 1 mg/kg): 0 and 5 (3×) and 7 and 6 and 2 and 4
- Average detailed clinical score, left forelimb [10]: 0.00
- Average detailed clinical score, left hind limb [10]: 2.50
- Average detailed clinical score, right forelimb [10]: 0.88
- Average detailed clinical score, right hind limb [10]: 2.25
- Average detailed clinical score, score [10]: 5.63
- Average overall clinical score [10]: 3
- Overall Clinical Score (Day 18, CIA + Compound A 3 mg/kg, 3 mg/kg): 4 and 3 and 2
- Average detailed clinical score, left forelimb [11]: 0.00
- Average detailed clinical score, left hind limb [11]: 1.13
- Average detailed clinical score, right forelimb [11]: 0.00
- Average overall clinical score [11]: 3
- Animal paw volume (Day 18, L paw, Group 5 (CIA + Compound A 1 mg/kg), 1 mg/kg): 2.03 mL (2×) and 2.42 mL and 2.06 mL and 2.21 mL and 1.67 mL and 2.02 mL
- Animal paw volume (Day 18, L paw, Group 6 (CIA + Compound A 3 mg/kg), 3 mg/kg): 1.71 mL and 1.99 mL and 1.40 mL and 1.51 mL and 1.55 mL and 1.66 mL
- Animal paw volume (Day 18, R paw, Group 5 (CIA + Compound A 1 mg/kg), 1 mg/kg): 2.08 mL and 2.46 mL and 1.84 mL and 2.04 mL (2×) and 1.61 mL and 1.82 mL
- Animal paw volume (Day 18, R paw, Group 6 (CIA + Compound A 3 mg/kg), 3 mg/kg): 2.14 mL and 1.58 mL and 1.91 mL and 1.76 mL and 1.95 mL and 1.65 mL
- Average animal paw volume [12]: 1.97 mL
- Average animal paw volume percent change (%) [12]: 49.19%
- Average animal paw volume [13]: 1.70 mL
- Average animal paw volume percent change (%) [13]: 29.54%
- Average animal paw volume [14]: 1.66 mL
- Average animal paw volume percent change (%) [14]: 26.62%
- Animal paw volume percent change (%) (Day 19, L paw, group 5 CIA + Compound A 1 mg/kg, 1 mg/kg): 55.17% and 87.60% and 49.82% and 69.06% and 22.47% and 52.08% and 53.58%
- Animal paw volume percent change (%) (Day 19, L paw, group 6 CIA + Compound A 3 mg/kg, 3 mg/kg): 43.35% and 54.47% and 22.81% and 10.99% and 29.12%
- Average animal paw volume [15]: 1.92 mL
- Average animal paw volume percent change (%) [15]: 44.50%
- Average animal paw volume [16]: 1.78 mL
- Average animal paw volume percent change (%) [16]: 35.81%
- Average animal paw volume [17]: 1.75 mL
- Average animal paw volume percent change (%) [17]: 33.14%
- Animal paw volume percent change (%) (Day 19, R paw, group 5 CIA + Compound A 1 mg/kg, 1 mg/kg): 68.20% and 87.26% and 33.45% and 54.34% and 17.71% and 54.75% and 35.85%
- Animal paw volume percent change (%) (Day 19, R paw, group 6 CIA + Compound A 3 mg/kg, 3 mg/kg): 61.89% and 25.68% and 43.02% and 29.74% and 52.90%
- Average detailed clinical score, left forelimb [18]: 1.13
- Average detailed clinical score, left hind limb [18]: 4.00
- Average detailed clinical score, right forelimb [18]: 1.00
- Average detailed clinical score, right hind limb [18]: 3.75
- Average detailed clinical score, score [18]: 9.88
- Average overall clinical score [18]: 5
- Overall Clinical Score (Day 19, CIA + Compound A 1 mg/kg, 1 mg/kg): 0 and 6 (5×) and 8 and 3
- Average detailed clinical score, left forelimb [19]: 0.00
- Average detailed clinical score, left hind limb [19]: 2.38
- Average detailed clinical score, right forelimb [19]: 1.13
- Average detailed clinical score, right hind limb [19]: 2.88
- Average detailed clinical score, score [19]: 6.38
- Average overall clinical score [19]: 4
- Overall Clinical Score (Day 19, CIA + Compound A 3 mg/kg, 3 mg/kg): 5 and 4 (2×)
- Average overall clinical score (Day 19, CIA + Compound A 10 mg/kg): 4
- Animal paw volume (Day 19, L paw, Group 5 (CIA + Compound A 1 mg/kg), 1 mg/kg): 2.03 mL (2×) and 2.42 mL and 2.24 mL and 1.64 mL and 2.02 mL and 2.04 mL
- Animal paw volume (Day 19, L paw, Group 6 (CIA + Compound A 3 mg/kg), 3 mg/kg): 1.89 mL and 1.99 mL and 1.62 mL and 1.52 mL and 1.69 mL
- Animal paw volume (Day 19, R paw, Group 5 (CIA + Compound A 1 mg/kg), 1 mg/kg): 2.20 mL and 2.43 mL and 1.84 mL and 2.05 mL and 1.60 mL and 2.04 mL and 1.80 mL
- Animal paw volume (Day 19, R paw, Group 6 (CIA + Compound A 3 mg/kg), 3 mg/kg): 2.15 mL and 1.62 mL and 1.90 mL and 1.75 mL and 1.98 mL
- Average animal paw volume [20]: 2.01 mL
- Average animal paw volume percent change (%) [20]: 52.06%
- Average animal paw volume [21]: 1.73 mL
- Average animal paw volume percent change (%) [21]: 31.54%
- Average animal paw volume [22]: 1.72 mL
- Average animal paw volume percent change (%) [22]: 31.20%
- Animal paw volume percent change (%) (Day 21, L paw, group 5 CIA + Compound A 1 mg/kg, 1 mg/kg): 56.70% and 89.53% and 53.14% and 70.94% and 22.47% and 56.60% and 61.89%
- Animal paw volume percent change (%) (Day 21, L paw, group 6 CIA + Compound A 3 mg/kg, 3 mg/kg): 46.01% and 70.04% and 24.33% and 10.99% and 37.55%
- Average animal paw volume [23]: 2.01 mL
- Average animal paw volume percent change (%) [23]: 51.46%
- Average animal paw volume (Day 21, R paw, group 6 CIA + Compound A 3 mg/kg): 1.82 mL

— US20260217701A1, “SELECTIVE BET INHIBITORS AND USES THEREOF” (Tay Therapeutics Limited, priority 2022, published 2026)
